Structures can show the parent of a compound that is named as a salt.
Each compound was assayed on Utrophin A promoter linked to a luciferase reporter gene (H2K/mdx/Utro A reporter cell line) (assay: Luciferase reporter assay (murine H2K cells)). Conditions: Mus musculus, H2K mdx.
Work on `c1ccc(NNc2nc3ccccc3s2)cc1` [Example 552, 2-(2-phenylhydrazinyl)benzo[d]thiazole] yielded an activity at 10 µM of less than 200%. `COc1ccc(C(=O)Nc2ccc(-c3nc4ccccc4[nH]3)cc2)cc1OC` [Example 494, N-(4-(1H-benzo[d]imidazol-2-yl)phenyl)-3,4-dimethoxybenzamide] showed an activity at 10 µM of less than 200%. With `Cc1ccc(C(=O)Nc2nc3ccccc3s2)c(Cl)c1` [Example 567, N-(benzo[d]thiazol-2-yl)-2-chloro-4-methylbenzamide] the activity at 10 µM was less than 200%. `O=C(Nc1ccc(-c2nc3ccccc3[nH]2)cc1)c1cccs1` [Example 585, N-(4-(1H-Benzo[d]imidazol-2-yl)phenyl)thiophene-2-carboxamide] was tested, and the activity at 10 µM was greater than 401%. Compound `Cc1ccc2sc(NC(=O)NC(=O)c3c(Cl)cccc3Cl)nc2c1` [Example 462, 2,6-dichloro-N-(5-methylbenzo[d]thiazol-2-ylcarbamoyl)benzamide] has an activity at 10 µM of less than 200%. For `Cc1ccc2oc(-c3ccc([N+](=O)[O-])cc3)nc2c1` [Example 505, 5-methyl-2-(4-nitrophenyl)benzo[d]oxazole], the activity at 10 µM was 201 to 300%. `CCCS(=O)(=O)c1ccc2oc(-c3ccc(Cl)cc3)nc2c1` [Example 578, 2-(4-chlorophenyl)-5-(propylsulfonyl)benzo[d]oxazole] gave an activity at 10 µM of less than 200%. For `CCc1nc2cc(S(=O)(=O)CC)ccc2o1` [Example 572, 2-ethyl-5-(ethylsulfonyl)benzo[d]oxazole], the activity at 10 µM was less than 200%. In the case of `O=C(CSc1nc[nH]n1)Nc1ccc(-c2nc3ccccc3s2)cc1` [Example 685, 2-(1H-1,2,4-triazol-3-ylthio)-N-(4-(benzo[d]thiazol-2-yl)phenyl)acetamide], the activity at 10 µM is reported as 201 to 300%. Work on `Cc1ccc2nc(-c3ccc(NC(=O)c4cccnc4)cc3)sc2c1` [Example 638, N-(4-(6-methylbenzo[d]thiazol-2-yl)phenyl)nicotinamide] yielded an activity at 10 µM of 301 to 400%. Work on `O=C(Nc1ccccc1F)C(=O)c1c[nH]c2ccccc12` [Example 689, N-(2-fluorophenyl)-2-(1H-indol-3-yl)-2-oxoacetamide] yielded an activity at 10 µM of 201 to 300%. `CNC(=O)Nc1ccc2nc(C)oc2c1` [Example 467, 1-methyl-3-(2-methylbenzo[d]oxazol-6-yl)urea] showed an activity at 10 µM of less than 200%. With `CCOc1ccc2nc(NC(=O)c3ccccc3)sc2c1` [Example 555, N-(6-ethoxybenzo[d]thiazol-2-yl)benzamide] the activity at 10 µM was less than 200%. `O=C(CSc1nc2ccccc2s1)N1CCCCC1` [Example 617, 2-(benzo[d]thiazol-2-ylthio)-1-(piperidin-1-yl)ethanone] was tested, and the activity at 10 µM was greater than 401%. `O=[N+]([O-])c1ccc2[nH]c(-c3ccco3)nc2c1` [Example 508, 2-(furan-2-yl)-5-nitro-1H-benzo[d]imidazole] showed an activity at 10 µM of less than 200%. `Cc1cc2nc(-c3cc(N)ccc3Cl)oc2cc1C` [Example 646, 4-chloro-3-(5,6-dimethylbenzo[d]oxazol-2-yl)aniline] was tested, and the activity at 10 µM was 301 to 400%. For `Oc1ccc2nc(-c3ccc(Cl)cc3)oc2c1` [Example 579, 2-(4-chlorophenyl)benzo[d]oxazol-6-ol], the activity at 10 µM was greater than 401%. `Cn1c(-c2ccc(N)cc2)nc2cc(N)ccc21` [Example 490, 2-(4-aminophenyl)-1-methyl-1H-benzo[d]imidazol-5-amine] showed an activity at 10 µM of less than 200%. In the case of `Cc1cc2nc(-c3cc(N)ccc3O)oc2cc1C` [Example 559, 4-amino-2-(5,6-dimethylbenzo[d]oxazol-2-yl)phenol], the activity at 10 µM is reported as 301 to 400%. Work on `Cc1ccc2oc(-c3ccc(Cl)c(N)c3)nc2c1` [Example 636, 2-chloro-5-(5-methylbenzo[d]oxazol-2-yl)aniline] yielded an activity at 10 µM of 301 to 400%. `CC(=O)Nc1cccc(-c2nc3ccccc3[nH]2)c1` [Example 503, N-(3-(1H-benzo[d]imidazol-2-yl)phenyl)acetamide] gave an activity at 10 µM of less than 200%. `O=[N+]([O-])c1ccc2oc(-c3ccc(F)cc3)nc2c1` [Example 525, 2-(4-fluorophenyl)-5-nitrobenzo[d]oxazole] gave an activity at 10 µM of less than 200%. `Nc1c(C(=O)Nc2ccccc2F)sc2nc3c(cc12)CCC3` [Example 673, 3-amino-N-(2-fluorophenyl)-6,7-dihydro-5H-cyclopenta[e]thieno[2,3-b]pyridine-2-carboxamide] showed an activity at 10 µM of 201 to 300%. In the case of `COc1ccc(-c2nc3ccc([N+](=O)[O-])cc3o2)cc1` [Example 584, 2-(4-Methoxyphenyl)-6-nitrobenzo[d]oxazole], the activity at 10 µM is reported as 301 to 400%. `CSc1ccc(-c2nc3ccccc3[nH]2)cc1` [Example 543, 2-(4-(methylthio)phenyl)-1H-benzo[d]imidazole] gave an activity at 10 µM of 201 to 300%. For `CCSc1nc2ccc(N)cc2s1` [Example 563, 2-(ethylthio)benzo[d]thiazol-6-amine], the activity at 10 µM was 201 to 300%. Work on `Nc1ccc2[nH]c(-c3ccc(Cl)cc3)nc2c1` [Example 560, 2-(4-chlorophenyl)-1H-benzo[d]imidazol-5-amine] yielded an activity at 10 µM of 301 to 400%. For `CCS(=O)(=O)c1ccc2ocnc2c1` [Example 573, 5-(ethylsulfonyl)benzo[d]oxazole], the activity at 10 µM was less than 200%. `c1ccc(OCc2nc3ccccc3[nH]2)cc1` [Example 471, 2-(phenoxymethyl)-1H-benzo[d]imidazole] was tested, and the activity at 10 µM was 201 to 300%. `Nc1ccc2[nH]c(-c3ccco3)nc2c1` [Example 510, 2-(furan-2-yl)-1H-benzo[d]imidazol-5-amine dihydrochloride] was tested, and the activity at 10 µM was less than 200%. With `CCn1c(C)nc2cc(C(=O)Nc3ccccc3)ccc21` [Example 615, 1-ethyl-2-methyl-N-phenyl-1H-benzo[d]imidazole-5-carboxamide] the activity at 10 µM was greater than 401%. In the case of `Nc1ccc(O)c(-c2nc3cc(N)ccc3s2)c1` [Example 550, 4-amino-2-(5-aminobenzo[d]thiazol-2-yl)phenol], the activity at 10 µM is reported as less than 200%. `Cn1c(CNc2ccc(Cl)cc2)nc2ccccc21` [Example 666, 4-chloro-N-((1-methyl-1H-benzo[d]imidazol-2-yl)methyl)aniline] was tested, and the activity at 10 µM was 201 to 300%. With `Nc1ccc2oc(-c3ccccc3F)nc2c1` [Example 569, 2-(2-fluorophenyl)benzo[d]oxazol-5-amine] the activity at 10 µM was 301 to 400%. `Cn1c(-c2ccc(Cl)cc2)nc2ccccc21` [Example 541, 2-(4-chlorophenyl)-1-methyl-1H-benzo[d]imidazole] gave an activity at 10 µM of 201 to 300%. `O=C(Nc1ccccc1F)c1sc2ccccc2c1Cl` [Example 621, 3-chloro-N-(2-fluorophenyl)benzo[b]thiophene-2-carboxamide] showed an activity at 10 µM greater than 401%. `Nc1ccc(Oc2ccc(-c3nc4ccccc4[nH]3)cc2)cc1` [Example 557, 4-(4-(1H-benzo[d]imidazol-2-yl)phenoxy)aniline] gave an activity at 10 µM greater than 401%. `Cc1ccc2nc(-c3ccc(NC(=O)C(C)C)cc3)oc2c1` [Example 564, N-(4-(6-methylbenzo[d]oxazol-2-yl)phenyl)isobutyramide] gave an activity at 10 µM of less than 200%. Compound `Nc1cc(-c2nc3ccccc3s2)ccc1Cl` [Example 592, 5-(Benzo[d]thiazol-2-yl)-2-chloroaniline] has an activity at 10 µM greater than 401%. Compound `CC(=O)Nc1ccc(-c2nc3cc(Cl)c(NC(C)=O)cc3[nH]2)cc1` [Example 556, N-(4-(6-acetamido-5-chloro-1H-benzo[d]imidazol-2-yl)phenyl)acetamide] has an activity at 10 µM of less than 200%. `COc1ccc2oc(-c3ccc(C)c(N)c3)nc2c1` [Example 686, 5-(5-methoxybenzo[d]oxazol-2-yl)-2-methylaniline] was tested, and the activity at 10 µM was 201 to 300%. Work on `CCc1ccc2oc(-c3ccc(N)cc3)nc2c1` [Example 553, 4-(5-ethylbenzo[d]oxazol-2-yl)aniline] yielded an activity at 10 µM greater than 401%. `CC(=O)Oc1ccc(C(=O)Nc2ccc(-c3nc4ccccc4[nH]3)cc2)cc1` [Example 655, 4-(4-(1H-benzo[d]imidazol-2-yl)phenylcarbamoyl)phenyl acetate] showed an activity at 10 µM of 301 to 400%. In the case of `c1cc(NCc2ccncc2)cc(-c2nc3ccccc3s2)c1` [Example 647, 3-(benzo[d]thiazol-2-yl)-N-(pyridin-4-ylmethyl)aniline], the activity at 10 µM is reported as 301 to 400%. Work on `c1ccc(OCc2nc3ccccc3s2)cc1` [Example 633, 2-(phenoxymethyl)benzo[d]thiazole] yielded an activity at 10 µM of 301 to 400%. `Cc1ccc2[nH]c(-c3ccc([N+](=O)[O-])cc3)nc2c1` [Example 605, 5-Methyl-2-(4-nitrophenyl)-1H-benzo[d]imidazole] was tested, and the activity at 10 µM was 301 to 400%. `Nc1ccc(-c2nc3ccc(N)cc3o2)cc1` [Example 544, 2-(4-aminophenyl)benzo[d]oxazol-6-amine] was tested, and the activity at 10 µM was 201 to 300%. `Cc1ccc2nc(-c3ccc(N)cc3)oc2c1` [Example 506, 4-(6-methylbenzo[d]oxazol-2-yl)aniline] gave an activity at 10 µM of less than 200%. Compound `COc1ccc(-c2nc3ccccc3o2)cc1` [Example 583, 2-(4-Methoxyphenyl)benzo[d]oxazole] has an activity at 10 µM of 301 to 400%. Work on `COc1ccc(CSc2nc3ccccc3[nH]2)cc1` [Example 640, 2-(4-methoxybenzylthio)-1H-benzo[d]imidazole] yielded an activity at 10 µM of 301 to 400%. With `COc1cccc(-c2nc3ccccc3s2)c1` [Example 606, 2-(3-Methoxyphenyl)benzo[d]thiazole] the activity at 10 µM was 301 to 400%. Compound `Clc1ccc(SCc2ccc(-c3nc4ccccc4[nH]3)cc2)cc1` [Example 460, 2-(4-((4-chlorophenylthio)methyl)phenyl)-1H-benzo[d]imidazole] has an activity at 10 µM of less than 200%. `Cc1ccc(C)c(OCc2nc3ccccc3[nH]2)c1` [Example 548, 2-((2,5-dimethylphenoxy)methyl)-1H-benzo[d]imidazole] gave an activity at 10 µM of less than 200%. Work on `O=C(Nc1nc2ccc(F)cc2s1)c1cccs1` [Example 658, N-(6-fluorobenzo[d]thiazol-2-yl)thiophene-2-carboxamide] yielded an activity at 10 µM of 301 to 400%. In the case of `Cc1ccc2nc(-c3ccc(NC(=O)c4ccccc4C(=O)O)cc3)sc2c1` [Example 545, 2-(4-(6-methylbenzo[d]thiazol-2-yl)phenylcarbamoyl)benzoic acid], the activity at 10 µM is reported as less than 200%. With `OCc1cn(-c2ccccc2)nc1-c1cc2ccccc2o1` [Example 674, (3-(benzofuran-2-yl)-1-phenyl-1H-pyrazol-4-yl)methanol] the activity at 10 µM was 201 to 300%.

Same assay, conditions: Table 1; luciferase level relative to control; final concentration of 10 μM
With `O=C(O)c1cccc(-c2ccc3oc(-c4ccc(Cl)cc4)nc3c2)c1` [Example 313, 3-(2-(4-chlorophenyl)benzo[d]oxazol-5-yl)benzoic acidd] the Activity was “+ (Up to 200% relative to control)”.

From US8518980B2, “Treatment of Duchenne muscular dystrophy” (Summit Corporation PLC, priority 2006, dated 2013)
